In US11708549B2, “Bacterial, fungal, and yeast growth inhibitor containing allulose” (CJ CHEILJEDANG CORPORATION, priority 2016, dated 2023):

Tests used:
[1] = test system: Lactobacillus casei and Lactococcus lactis subsp. lactis, as bacteria; experiment: Increase in cell number of bacteria depending on saccharides; assay type: cell-based; conditions: bacteria in modified MRS medium, FIGS. 1 and 2
Excerpt: (§1) Specifically, each of the microorganisms (bacteria, fungi, and yeasts) obtained from Korean Culture Center of Microorganisms (KCCM) was subcultured three or four times in a culture medium (Table 1) by a typical method to enhance activity. Then, the cultured microorganism was inoculated into a culture medium (Table 1), followed by inducing over-cultivation to a concentration of 10^5 CFU/mL or more, thereby obtaining a strain mother liquor (Table 1).
(§2) In order to compare degrees of inhibition of the growth of microorganisms depending upon the kind of purely added saccharides without a bias due to alcohol and other additives contained in a fermented alcoholic beverage, only the kind of saccharides added to a culture medium for each of the microorganisms was varied and investigated.
(§3) Specifically, as saccharides of a culture medium suited to each strain, water-containing crystalline glucose (purity 98 wt % or more, CJ Cheiljedang), sucrose (purity 98 wt % or more, CJ Cheiljedang), and crystalline allulose (purity: 98 wt % or more, CJ Cheiljedang) were added to each of the culture medium, thereby preparing a modified culture medium (Tables 2 to 4). […]
(§4) Thereafter, the measured number of cell colonies was multiplied by a dilution factor, thereby calculating a value of colony forming unit (CFU) per mL of sample.

[2] = test system: Saccharomyces cerevisiae and Saccharomyces pastorianus, as yeasts; experiment: Increase in cell number of yeasts depending on saccharides; assay type: cell-based; conditions: yeasts in modified YMB medium, FIGS. 8 and 9
Excerpt: as §1, §2, §3, §4

O=C(CO)C(O)C(O)C(O)CO (centres unmarked) [allulose]
strain growth (in words) [1]: substantially no strain growth was observed
strain growth (in words) [2]: substantially no strain growth was observed
